For data set [1], the system named is P. falciparum. Description: In vitro antiplasmodial assay (P. falciparum NF54, intraerythrocytic). The following applies: for IC50: Plasmodium falciparum, NF54, read-out: IC50 P. falciparum; for selectivity ratio: rat. As to the method:
The in vitro activity was assessed on T. b. rhodesiense (STIB900, bloodstream forms), T. cruzi (Tulahuen C2C4, intracellular amastigotes), L. donovani (MHOM-ET-67/L82, axenically grown amastigotes), P. falciparum (NF54, intraerythrocytic), and L6 cells (rat skeletal myoblasts) as previously described. Results are expressed in µg/mL for extracts and in µM for pure compounds.

Data set [2] has as its system T. b. rhodesiense. As to the kind of experiment: In vitro antitrypanosomal assay (T. b. rhodesiense STIB900, bloodstream forms). The format is cell-based. The following applies: Trypanosoma brucei.
Protocol: (§1) The in vitro activity was assessed on T. b. rhodesiense (STIB900, bloodstream forms), T. cruzi (Tulahuen C2C4, intracellular amastigotes), L. donovani (MHOM-ET-67/L82, axenically grown amastigotes), P. falciparum (NF54, intraerythrocytic), and L6 cells (rat skeletal myoblasts) as previously described [42].
Data set [3] concerns L. donovani. As to the kind of experiment: In vitro antileishmanial assay (L. donovani MHOM-ET-67/L82, axenically grown amastigotes). The format is cell-based, Leishmania donovani. The following applies: for IC50: Leishmania donovani, pure compounds and reference drug, mean of two independent assays, axenically grown amastigotes.
Protocol: as §1
Data set [4] deals with T. cruzi. Description: In vitro antitrypanosomal assay (T. cruzi Tulahuen C2C4, intracellular amastigotes). The format is cell-based. The following applies: Trypanosoma cruzi.
Protocol: as §1
Data set [5] can be described thus: Cytotoxicity against rat skeletal myoblast L6 cells. The format is cell-based.
Protocol: as §1
For data set [6], the system named is P. berghei. Also on record: method as in PMID 11378289. The following applies: in vivo mouse model, daily doses of 25 mg/kg/day, compared to untreated control mice; cited from earlier work.
Data set [7] deals with P. falciparum. Also on record: method as in PMID 11378289. The following applies: alkaloids from the methanol root extract of P. mutica; cited from earlier work.
In data set [8] the test system is T. cruzi. Also on record: method as in PMID 25233577. The following applies: cited from earlier work.
Data set [9] concerns L. infantum. Also on record: method as in PMID 25233577. The following applies: cited from earlier work.
For data set [10], the system named is T. cruzi. Also on record: method as in PMID 26755152. The following applies: previous study; cited from earlier work.
The mark [11] stands for this setting: Selectivity index (SI) = IC50 cytotoxicity/IC50 against parasite, L6 cells vs P. falciparum.

Where two headings read alike, the source gives them in different places. Bounds are passed on as bounds.

One may read the IC50 as the concentration at which inhibition is half-maximal. As for `CCC1C2CCN3CCC4(C(=C2C(=O)OC)Nc2ccccc24)C13` [Compound 15, methyl (7S,15R,20R,21S)-20-ethyl-5,6,14,15,21-hexahydro-15,21-ethanopyrrolo[5,21-d]carbazole-16-carboxylate-methane], the concentration for half-maximal inhibition (IC50) in data set [1], in data set [2], in data set [3] and in data set [4] was greater than 50 µM each time.

The molecule `CCCCCCCCCCCCCCCCOP(=O)([O-])OCC[N+](C)(C)C` [Miltefosine, reference compound] yielded an IC50 in data set [3] of 0.554 µM.

In the case of `CC=C1C[N+]2(C)C3CC1C(CO)(C(=O)OC)C2Cc1c3[nH]c2ccccc12` (stereo not shown) [Compound 6, macusine A], the IC50 in [1] is 26.9 µM; in data set [5] (L6 cells (rat skeletal myoblasts), pure compounds and reference drug, rat skeletal myoblast L6 cells, mean of two independent assays, read-out: IC50 Cytotoxicity), 272 µM; in [3], greater than 50 µM. Further, the selectivity ratio in [1] (setting [11]) is 10.1.

As for `COC(=O)[C@@H]1CC23CCCN4CC[C@@]5(c6ccccc6N(C(=O)OC)C15CC2)[C@@H]43` (stereo partly shown) [Compound 11, pleiocarpine], the concentration for half-maximal inhibition (IC50) in [1] was 26.6 µM; in data set [5] (rat), 156 µM; in [3], greater than 50 µM; in [7] it was greater than 200 µM. Also, the selectivity ratio in [1] turned out to be 5.8. For the same molecule, the reduced parasitemia in [6] is 28.5%.

As to `C/C=C1/CN2CC[C@@]34CN5c6c(cccc6[C@@]67CCN8CCC[C@@]9(CC[C@@]56[C@@H]9C)[C@H]87)[C@@]35[C@@H]2C[C@@H]1[C@@H](C(=O)OC)N5c1ccccc14` [pleiomutinine, reference compound], the IC50 in data set [7] is 5 µM.

Take `CC[C@H]1[C@@H]2CCN3CC[C@@]4(C(=C2C(=O)OC)Nc2ccccc24)[C@@H]13` [Compound 13, tubotaiwine]: the “Selectivity index (SI) = IC50 cytotoxicity/IC50 against parasite” value in [1] (L6 cells vs P. falciparum) is given as 23.2. The half-inhibitory concentration (IC50) in [1] is 8.5 µM; in data set [5] (rat), 197 µM; in [3], greater than 50 µM; in [9], 17.3 µM. Also, the selectivity ratio in data set [1] (setting [11]) worked out at 23.4. Also, the “activity against T. cruzi” value in data set [8] is on record as “no activity”.

`COc1cc([C@@H]2c3cc4c(cc3[C@H](O)[C@H]3COC(=O)[C@H]23)OCO4)cc(OC)c1OC` [Podophyllotoxin, reference compound]: the IC50 in data set [5] (pure compounds and reference drug, rat skeletal myoblast L6 cells, mean of two independent assays, read-out: IC50 Cytotoxicity) stood at 0.027 µM.

Turning to `COC(=O)[C@@H]1CC23CCCN4CC[C@@]5(c6ccccc6NC15CC2)[C@@H]43` (stereo partly shown) [Compound 2, kopsinine], the 50% inhibitory concentration (IC50) in data set [7] was greater than 200 µM.

With `CCN(CC)CCCC(C)Nc1ccnc2cc(Cl)ccc12` (stereo not shown) [Chloroquine, reference compound], the IC50 in data set [1] amounted to 0.006 µM.

In the case of `C=C[C@H]1[C@H](O[C@@H]2O[C@H](CO)[C@@H](O)[C@H](O)[C@H]2O)OC=C(C(=O)OC)[C@H]1CC(=O)O` [Compound 16, secoxyloganin], the IC50 in data set [10] is greater than 150 µM; in data set [1], greater than 50 µM; in data set [5] (rat) it was 294 µM; in data set [3], 25.3 µM. Further, the selectivity ratio in [3] (rat, L6 cells vs L. donovani, read-out: Selectivity index (SI) = IC50 cytotoxicity/IC50 against parasite) came out at 11.6.
